Assay results published in patent US20260274892A1, “MACROCYCLIC BROAD SPECTRUM ANTIBIOTICS” (RQx Pharmaceuticals, Inc., priority 2017, published 2026).

The compounds below were run on Escherichia coli ATCC 25922 (assay: Minimum inhibitory concentration (MIC), CLSI broth micro-dilution, E. coli). Conditions: Escherichia coli, ATCC25922, 22 h, Table 6, cation adjusted Mueller Hinton Broth + 0.002% Tween-80, 35° C.
Assay type: cell-based
Method in brief: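 Colonies grown 20 h at 35° C on Trypticase Soy agar (MRSA) or Luria agar (E. coli) were suspended in cation-adjusted Mueller Hinton broth with 0.002% Tween-80. Suspensions were added at OD600 0.0005 to 10-point twofold compound dilutions, then incubated 22 h at 35° C.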

**Q.** Cc1nc(-c2cnc(OCCC(C)(C)C)nc2)nc(C)c1C(=O)N[C@@H](CCN)C(=O)N(C)[C@@H]1C(=O)N[C@@H](C)C(=O)N[C@H](C(=O)NCC#N)Cc2ccc(OCCN)c(c2)-c2cc1ccc2OCCN (racemic) [Compound 550, rac-(8S,11S,14S)-3,18-bis(2-aminoethoxy)-N-(cyanomethyl)-11-methyl-14-[methyl-[rac-(2S)-4-amino-2-[[2-[2-(3,3-dimethylbutoxy)pyrimidin-5-yl]-4,6-dimethyl-pyrimidine-5-carbonyl]amino]butanoyl]amino]-10,13-dioxo-9,12-diazatricyclo[13.3.1.12,6]icosa-1(18),2(20),3,5,15(19),16-hexaene-8-carboxamide] was tested. Which MIC did it give?
**A.** The MIC was 2 µM.

**Q.** Which MIC does the source give for Cc1nc(N2CCC(OCCC(C)(C)C)CC2)nc(C)c1C(=O)N[C@@H](CCN)C(=O)N(C)[C@@H]1C(=O)N[C@@H](C)C(=O)N[C@H](C(=O)NCC#N)Cc2ccc(OCCN)c(c2)-c2cc1ccc2OCCN (racemic) [Compound 527, rac-(8S,11S,14S)-3,18-bis(2-aminoethoxy)-N-(cyanomethyl)-11-methyl-14-[methyl-[rac-(2S)-4-amino-2-[[2-[4-(3,3-dimethylbutoxy)-1-piperidyl]-4,6-dimethyl-pyrimidine-5-carbonyl]amino]butanoyl]amino]-10,13-dioxo-9,12-diazatricyclo[13.3.1.12,6]icosa-1(18),2(20),3,5,15(19),16-hexaene-8-carboxamide] here?
**A.** The MIC was 0.38 µM.

Same assay, conditions: Escherichia coli, ATCC25922, 22 h, Table 7, cation adjusted Mueller Hinton Broth + 0.002% Tween-80, 35° C.

**Q.** How did the MIC turn out when Cc1nc(-c2ccc(C(C)(C)C)cc2)nc(C)c1C(=O)N[C@@H](CCN)C(=O)N(C)[C@@H]1C(=O)N[C@@H](C)C(=O)N[C@H](C(=O)NCC#N)Cc2ccc(OC(C)CN)c(c2)-c2cc1ccc2O (mixture of isomers) [Compound 606, rac-(8S,11S,14S)-3-(2-amino-1-methyl-ethoxy)-N-(cyanomethyl)-18-hydroxy-11-methyl-14-[methyl-[rac-(2S)-4-amino-2-[[2-(4-tert-butylphenyl)-4,6-dimethyl-pyrimidine-5-carbonyl]amino]butanoyl]amino]-10,13-dioxo-9,12-diazatricyclo[13.3.1.12,6]icosa-1(18),2(20),3,5,15(19),16-hexaene-8-carboxamide] was run?
**A.** The MIC was 0.5 µM.

**Q.** For Cc1nc(-c2ccc(C(C)(C)C)cc2)nc(C)c1C(=O)N[C@@H](CCN)C(=O)N(C)[C@@H]1C(=O)N[C@@H](C)C(=O)N[C@H](C(=O)NCC#N)Cc2ccc(O)c(c2)-c2cc1ccc2OC[C@H](O)CN (racemic) [Compound 617, rac-(8S,11S,14S)-N-(cyanomethyl)-3-hydroxy-11-methyl-14-[methyl-[rac-(2S)-4-amino-2-[[2-(4-tert-butylphenyl)-4,6-dimethyl-pyrimidine-5-carbonyl]amino]butanoyl]amino]-10,13-dioxo-18-[rac-(2R)-3-amino-2-hydroxy-propoxy]-9,12-diazatricyclo[13.3.1.12,6]icosa-1(18),2(20),3,5,15(19),16-hexaene-8-carboxamide], which MIC is on record?
**A.** Its MIC is 0.19 µM.

**Q.** Which MIC does the source give for Cc1nc(-c2ccc(C(C)(C)C)cc2)nc(C)c1C(=O)N[C@@H](CCN)C(=O)N(C)[C@@H]1C(=O)N[C@@H](C)C(=O)N[C@H](C(=O)NCC#N)Cc2cc(F)c(O)c(c2)-c2cc1ccc2OCCN [Compound 560, (4S,7S,10S)-10-((S)-4-amino-2-(2-(4-(tert-butyl)phenyl)-4,6-dimethylpyrimidine-5-carboxamido)-N-methylbutanamido)-1^6-(2-aminoethoxy)-N-(cyanomethyl)-2^5-fluoro-2^6-hydroxy-7-methyl-6,9-dioxo-5,8-diaza-1,2(1,3)-dibenzenacyclodecaphane-4-carboxamide] here?
**A.** The MIC was 0.25 µM.

**Q.** With Cc1nc(-c2ccc(C(C)(C)C)cc2)nc(C)c1C(=O)N[C@@H](CCN)C(=O)N(C)[C@@H]1C(=O)N[C@@H](C)C(=O)N[C@H](C(=O)NCC#N)Cc2ccc(OCCN)c(c2)-c2cc1cc(NC(N)=O)c2O (racemic) [Compound 621, rac-(8S,11S,14S)-3-(2-aminoethoxy)-N-(cyanomethyl)-18-hydroxy-11-methyl-14-[methyl-[rac-(2S)-4-amino-2-[[2-(4-tert-butylphenyl)-4,6-dimethyl-pyrimidine-5-carbonyl]amino]butanoyl]amino]-10,13-dioxo-17-ureido-9,12-diazatricyclo[13.3.1.12,6]icosa-1(18),2(20),3,5,15(19),16-hexaene-8-carboxamide] as the compound, how does the MIC read?
**A.** Its MIC is 0.25 µM.

**Q.** How did the MIC turn out when Cc1nc(-c2ccc(C(C)(C)C)cc2)nc(C)c1C(=O)N[C@@H](CCN)C(=O)N(C)[C@@H]1C(=O)N[C@@H](C)C(=O)N[C@H](C(=O)NCC#N)Cc2ccc(OC[C@H](N)CO)c(c2)-c2cc1ccc2O (racemic) [Compound 612, rac-(8S,11S,14S)-N-(cyanomethyl)-18-hydroxy-11-methyl-14-[methyl-[rac-(2S)-4-amino-2-[[2-(4-tert-butylphenyl)-4,6-dimethyl-pyrimidine-5-carbonyl]amino]butanoyl]amino]-10,13-dioxo-3-[rac-(2R)-2-amino-3-hydroxy-propoxy]-9,12-diazatricyclo[13.3.1.12,6]icosa-1(18),2(20),3,5,15(19),16-hexaene-8-carboxamide] was run?
**A.** The MIC was 0.25 µM.

**Q.** Cc1nc(-c2ccc(OC3CCCCC3)cc2)nc(C)c1C(=O)N[C@@H](CNS(N)(=O)=O)C(=O)N(C)[C@@H]1C(=O)N[C@@H](C)C(=O)N[C@H](C(=O)NCC#N)Cc2ccc(OCCCN)c(c2)-c2cc1ccc2OCCCN (racemic) [Compound 576, rac-(8S,11S,14S)-3,18-bis(3-aminopropoxy)-N-(cyanomethyl)-11-methyl-14-[methyl-[rac-(2S)-2-[[2-[4-(cyclohexoxy)phenyl]-4,6-dimethyl-pyrimidine-5-carbonyl]amino]-3-(sulfamoylamino)propanoyl]amino]-10,13-dioxo-9,12-diazatricyclo[13.3.1.12,6]icosa-1(18),2(20),3,5,15(19),16-hexaene-8-carboxamide] was tested. Which MIC did it give?
**A.** Its MIC is 0.5 µM.

Same assay, conditions: Escherichia coli, ATCC25922, Table 6, cation adjusted Mueller Hinton Broth + 0.002% Tween-80, 35° C., 22 hours

**Q.** Which MIC does the source give for Cc1nc(-c2ccc(C(C)(C)C)cc2F)nc(C)c1C(=O)N[C@@H](CCN)C(=O)N(C)[C@@H]1C(=O)N[C@@H](C)C(=O)N[C@H](C(=O)NCC#N)Cc2ccc(OCCN)c(c2)-c2cc1ccc2OCCN (racemic) [Compound 299, rac-(8S,11S,14S)-3,18-bis(2-aminoethoxy)-N-(cyanomethyl)-11-methyl-14-[methyl-[rac-(2S)-4-amino-2-[[2-(4-tert-butyl-2-fluoro-phenyl)-4,6-dimethyl-pyrimidine-5-carbonyl]amino]butanoyl]amino]-10,13-dioxo-9,12-diazatricyclo[13.3.1.12,6]icosa-1(18),2(20),3,5,15(19),16-hexaene-8-carboxamide] here?
**A.** The MIC was 0.38 µM.

**Q.** Cc1cc(-c2ccc(C(C)(C)C)cc2[N+](=O)[O-])nc(C)c1C(=O)N[C@@H](CCN)C(=O)N(C)[C@@H]1C(=O)N[C@@H](C)C(=O)N[C@H](C(=O)NCC#N)Cc2ccc(OCCN)c(c2)-c2cc1ccc2OCCN (racemic) [Compound 368, rac-(8S,11S,14S)-3,18-bis(2-aminoethoxy)-N-(cyanomethyl)-11-methyl-14-[methyl-[rac-(2S)-4-amino-2-[[6-(4-tert-butyl-2-nitro-phenyl)-2,4-dimethyl-pyridine-3-carbonyl]amino]butanoyl]amino]-10,13-dioxo-9,12-diazatricyclo[13.3.1.12,6]icosa-1(18),2(20),3,5,15(19),16-hexaene-8-carboxamide] was tested. Which MIC did it give?
**A.** The MIC was 0.5 µM.

**Q.** How did the MIC turn out when CC(=O)NCC[C@H](NC(=O)c1c(C)nc(-c2ccc(OC3CCCCC3)cc2)nc1C)C(=O)N(C)[C@@H]1C(=O)N[C@@H](C)C(=O)N[C@H](C(=O)NCC#N)Cc2ccc(OCCN)c(c2)-c2cc1ccc2OCCN [Compound 496, (8S,11S,14S)-14-[[(2S)-4-acetamido-2-[[2-[4-(cyclohexoxy)phenyl]-4,6-dimethyl-pyrimidine-5-carbonyl]amino]butanoyl]-methyl-amino]-3,18-bis(2-aminoethoxy)-N-(cyanomethyl)-11-methyl-10,13-dioxo-9,12-diazatricyclo[13.3.1.12,6]icosa-1(18),2(20),3,5,15(19),16-hexaene-8-carboxamide] was run?
**A.** The MIC was 1 µM.

**Q.** With Cc1cc(C(C)(C)C)ccc1-c1ccc(C(=O)N[C@@H](CCN)C(=O)N(C)[C@@H]2C(=O)N[C@@H](C)C(=O)N[C@H](C(=O)NCC#N)Cc3ccc(OCCN)c(c3)-c3cc2ccc3OCCN)c(C)n1 (racemic) [Compound 210, rac-(8S,11S,14S)-3,18-bis(2-aminoethoxy)-N-(cyanomethyl)-11-methyl-14-[methyl-[rac-(2S)-4-amino-2-[[6-(4-tert-butyl-2-methyl-phenyl)-2-methyl-pyridine-3-carbonyl]amino]butanoyl]amino]-10,13-dioxo-9,12-diazatricyclo[13.3.1.12,6]icosa-1(18),2(20),3,5,15(19),16-hexaene-8-carboxamide] as the compound, how does the MIC read?
**A.** The MIC was 0.35 µM.

Same assay, conditions: Escherichia coli, ATCC25922, Table 7, cation adjusted Mueller Hinton Broth + 0.002% Tween-80, 35° C., 22 hours

**Q.** How did the MIC turn out when CC(=O)Nc1cc2cc(c1O)-c1cc(ccc1OCCN)C[C@@H](C(=O)NCC#N)NC(=O)[C@H](C)NC(=O)[C@H]2N(C)C(=O)[C@H](CCN)NC(=O)c1c(C)nc(-c2ccc(C(C)(C)C)cc2)nc1C (racemic) [Compound 620, rac-(8S,11S,14S)-17-acetamido-3-(2-aminoethoxy)-N-(cyanomethyl)-18-hydroxy-11-methyl-14-[methyl-[rac-(2S)-4-amino-2-[[2-(4-tert-butylphenyl)-4,6-dimethyl-pyrimidine-5-carbonyl]amino]butanoyl]amino]-10,13-dioxo-9,12-diazatricyclo[13.3.1.12,6]icosa-1(18),2(20),3,5,15(19),16-hexaene-8-carboxamide] was run?
**A.** Its MIC is 0.5 µM.
